According to patent EP1712550A2, “Substituted triazole diamine derivatives as kinase inhibitors” (priority 2000, dated 2002):

What was measured:
[1] = target: T1, EGFR (epidermal growth factor receptor) (Homo sapiens, UniProt P00533); test: Kinase Selectivity Assay EGF-R; format: biochemical; conditions: Kinase Selectivity, Table 2; read-out: EGF-R IC50
T1 construct: is purified from human A431 cell membranes (Sigma, St. Louis, MO, Cat.# E3641); purchased Sigma, St. Louis, MO E3641; host or cells: human A431 cell membranes (endogenous protein)
T1 sequence (P00533 25-1210): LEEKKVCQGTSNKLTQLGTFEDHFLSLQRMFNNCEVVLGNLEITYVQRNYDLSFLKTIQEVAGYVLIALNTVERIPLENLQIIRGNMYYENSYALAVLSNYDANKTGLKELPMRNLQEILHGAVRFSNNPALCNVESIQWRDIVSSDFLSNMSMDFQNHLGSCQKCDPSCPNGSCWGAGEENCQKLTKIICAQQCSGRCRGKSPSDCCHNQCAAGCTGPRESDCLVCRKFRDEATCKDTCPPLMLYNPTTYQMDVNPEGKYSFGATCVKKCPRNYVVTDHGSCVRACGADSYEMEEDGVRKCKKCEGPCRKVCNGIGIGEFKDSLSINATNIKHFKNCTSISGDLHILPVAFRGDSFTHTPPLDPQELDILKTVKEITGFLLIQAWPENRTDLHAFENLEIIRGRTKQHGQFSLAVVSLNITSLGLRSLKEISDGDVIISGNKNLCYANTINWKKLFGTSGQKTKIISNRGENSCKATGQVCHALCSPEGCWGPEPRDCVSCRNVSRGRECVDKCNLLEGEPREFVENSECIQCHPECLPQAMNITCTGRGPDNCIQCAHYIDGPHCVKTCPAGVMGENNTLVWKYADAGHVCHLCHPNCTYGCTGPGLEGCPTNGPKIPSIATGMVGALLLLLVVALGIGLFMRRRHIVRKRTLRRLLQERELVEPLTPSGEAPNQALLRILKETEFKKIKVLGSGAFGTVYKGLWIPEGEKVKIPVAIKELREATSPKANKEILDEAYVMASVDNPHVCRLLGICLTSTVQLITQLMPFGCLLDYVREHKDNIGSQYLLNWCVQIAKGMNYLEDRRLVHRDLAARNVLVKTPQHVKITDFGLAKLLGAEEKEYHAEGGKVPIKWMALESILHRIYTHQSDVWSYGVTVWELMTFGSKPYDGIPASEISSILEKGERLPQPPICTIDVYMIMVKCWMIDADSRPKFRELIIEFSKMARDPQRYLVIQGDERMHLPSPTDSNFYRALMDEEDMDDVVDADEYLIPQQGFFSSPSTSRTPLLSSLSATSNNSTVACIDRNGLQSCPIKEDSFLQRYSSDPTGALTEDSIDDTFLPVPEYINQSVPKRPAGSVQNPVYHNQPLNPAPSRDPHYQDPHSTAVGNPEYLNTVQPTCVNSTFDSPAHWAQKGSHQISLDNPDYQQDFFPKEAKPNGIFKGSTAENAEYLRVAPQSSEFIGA

[2] = test system: HeLa cervical adenocarcinoma; test: Inhibition of Cell Proliferation, 14C-thymidine incorporation, HeLa; format: cell-based; conditions: Homo sapiens; Cell Line HeLa
Experimental: (§1) The ability of a test compound to inhibit the proliferation of cell growth was determined by measuring incorporation of ^14C-labelled thymidine into newly synthesized DNA within the cells. This method was used on cell lines derived from carcinomas originating from several tissues such as HeLa cervical adenocarcinoma (American Type Culture Collection (ATCC), Virginia, Cat. #CCL-2), A375 malignant melanoma (ATCC CRL-1619), SK-OV-3 ovarian adenocarcinoma (ATCC HTB-77) HCT-116 colon carcinoma (CCL-247), PC-3 prostate adenocarcinoma (ATCC CRL-1435), and MDA-MB-231 (Xenogen Corp.) In this way the effect of a compound on cell growth of cells with many different phenotypes can be determined. Cells were trypsinized and counted and 3000-8000 cells were added to each well of a 96-well CytoStar tissue culture treated scintillating microplate (Amersham #RPNQ0160) in complete medium in a volume of 100 µl. Cells were incubated for 24 hours in complete medium at 37°C in an atmosphere containing 5% CO2. Next, 1 µl of test compound in 100% DMSO was added to the wells of the plate. DMSO only was added to control wells. Cells were incubated for 24 more hours in complete medium at 37°C in an atmosphere containing 5% CO2. Methyl^14C-thymidine 56 mCi/mmol (NEN #NEC568 or Amersham #CFA532) was diluted in complete medium and 0.2 uCi/well was added to each well of the CytoStar plate in a volume of 20 ul. The plate was incubated for 24 hours at 37°C plus 5% CO2 in drug plus ^14C-thymidine. The contents of the plate were discarded into a ^14C radioactive waste container by inverting the plate and the plate was washed twice with 200 µl PBS. 200 µl of PBS is added to each well. The top of the plate was sealed with a transparent plate sealer and a white plate backing sealer (Packard #6005199) was applied to the bottom of the plate. The degree of methyl ^14C-thymidine incorporation was quantified on a Packard Top Count.

[3] = test system: HCT-116 colon carcinoma; test: Inhibition of Cell Proliferation, 14C-thymidine incorporation, HCT-116; format: cell-based; conditions: Homo sapiens; Cell Line HCT-116
Experimental: as §1

[4] = test system: PC-3 prostate adenocarcinoma; test: Inhibition of Cell Proliferation, 14C-thymidine incorporation, PC-3; format: cell-based; conditions: Cell Line PC-3
Experimental: as §1

[5] = test system: MDA-MB-231; test: Inhibition of Cell Proliferation, 14C-thymidine incorporation, MDA-MB-231; format: cell-based; conditions: Homo sapiens; Cell Line MDA-MB-231
Experimental: The ability of a test compound to inhibit the proliferation of cell growth was determined by measuring incorporation of ^14C-labelled thymidine into newly synthesized DNA within the cells. […] Cells were trypsinized and counted and 3000-8000 cells were added to each well of a 96-well CytoStar tissue culture treated scintillating microplate (Amersham #RPNQ0160) in complete medium in a volume of 100 µl. Cells were incubated for 24 hours in complete medium at 37°C in an atmosphere containing 5% CO2. Next, 1 µl of test compound in 100% DMSO was added to the wells of the plate. DMSO only was added to control wells. Cells were incubated for 24 more hours in complete medium at 37°C in an atmosphere containing 5% CO2. […] The plate was incubated for 24 hours at 37°C plus 5% CO2 in drug plus ^14C-thymidine. The contents of the plate were discarded into a ^14C radioactive waste container by inverting the plate and the plate was washed twice with 200 µl PBS. 200 µl of PBS is added to each well. […] The degree of methyl ^14C-thymidine incorporation was quantified on a Packard Top Count.

Compound: Cc1cc(C)c(C(=O)n2nc(Nc3ccc(S(N)(=O)=O)cc3)nc2N)s1 [Cpd 33, 4-[[5-amino-1-[(3,5-dimethyl-2-thienyl)carbonyl]-1H-1,2,4-triazol-3-yl]amino]-benzenesulfonamide]
- IC50 [1]: > 100000 nM
- IC50 [2]: 72 nM
- IC50 [3]: 27 nM
- IC50 [4]: 37 nM
- IC50 [5]: 171 nM
